Assay results as given in patent US8871680B2, “Herbicidal compositions comprising 4-amino-3-chloro-5-fluoro-6-(4-chloro-2-fluoro-3-methoxyphenyl) pyridine-2-carboxylic acid or a derivative thereof and a di-methoxy-pyrimidine and derivatives thereof” (Dow AgroSciences LLC, priority 2012, dated 2014).

Columns and labels:
DIGSA = assay: Postemergence foliar-applied weed control, direct seeded rice (greenhouse); assay type: in vivo, Digitaria sanguinalis (L.) Scop.
Text: (§1) Seeds or nutlets of the desired test plant species were planted in a soil matrix prepared by mixing a loam or sandy loam soil (e.g., 28.6 percent silt, 18.8 percent clay, and 52.6 percent sand, with a pH of about 5.8 and an organic matter content of about 1.8 percent) and calcareous grit in an 80 to 20 ratio. The soil matrix was contained in plastic pots with a volume of 1 quart and a surface area of 83.6 square centimeters (cm^2). When required to ensure good germination and healthy plants, a fungicide treatment and/or other chemical or physical treatment was applied. The plants were grown for 8-22 days in a greenhouse with an approximate 14 hr photoperiod which was maintained at about 29° C. during the day and 26° C. during the night. Nutrients (Peters Excel® 15-5-15 5-Ca 2-Mg and iron chelate) were applied in the irrigation solution as needed and water was added on a regular basis. Supplemental lighting was provided with overhead metal halide 1000-Watt lamps as necessary. The plants were employed for testing when they reached the first through fourth true leaf stage.
(§2) Treatments consisted of the acid or esters of 4-amino-3-chloro-5-fluoro-6-(4-chloro-2-fluoro-3-methoxy-phenyl)pyridine-2-carboxylic acid (Compound A), each formulated as an SC (suspension concentrate), and various herbicidal components alone and in combination. Forms of compound A were applied on an acid equivalent basis.
(§3) Other herbicidal components were applied on an active ingredient basis and included the dimethoxy-pyrimidine acid acetolactate synthase (ALS)-inhibiting herbicides bispyribac-sodium formulated as Regiment® 80WP, pyribenzoxim (technical grade material), pyriminobac-methyl formulated as Hie-Clean® 1.2% GR dissolved in water, and pyriftalid (technical grade material).
(§4) Treatment requirements were calculated based upon the rates being tested, the concentration of active ingredient or acid equivalent in the formulation, and a 12 mL application volume at a rate of 187 L/ha.
(§5) For treatments comprised of formulated compounds, measured amounts of compounds were placed individually in 25 mL glass vials and diluted in a volume of 1.25% (v/v) Agri-Dex® crop oil concentrated to obtain 12× stock solutions. […] Application solutions were prepared by adding an appropriate amount of each stock solution (e.g., 1 mL) and diluted to the appropriate final concentrations with the addition of 10 mL of an aqueous mixture of 1.25% (v/v) crop oil concentrate so that the final spray solutions contained 1.25+/−0.005% (v/v) crop oil concentrate.
For treatments comprised of technical compounds, weighed amounts can be placed individually in 25 mL glass vials and dissolved in a volume of 97:3 v/v acetone/DMSO to obtain 12× stock solutions. […] Application solutions can be prepared by adding an appropriate amount of each stock solution (e.g., 1 mL) and diluted to the appropriate final concentrations with the addition of 10 mL of an aqueous mixture of 1.5% (v/v) crop oil concentrate so that the final spray solutions contain 1.25% (v/v) crop oil concentrate. […]
(§6) For treatments comprised of formulated and technical compounds, weighed amounts of the technical materials were placed individually in 25 mL glass vials and dissolved in a volume of 97:3 v/v acetone/DMSO to obtain 12× stock solutions, and measured amounts of the formulated compounds were placed individually in 25 mL glass vials and diluted in a volume of 1.5% (v/v) crop oil concentrate or water to obtain 12× stock solutions. […]

IPOHE = assay: as above; assay type: in vivo, Ipomoea hederacea Jacq.
Text: as §1, §2, §3, §4, §5
For treatments comprised of technical compounds, weighed amounts can be placed individually in 25 mL glass vials and dissolved in a volume of 97:3 v/v acetone/DMSO to obtain 12× stock solutions. […] Application solutions can be prepared by adding an appropriate amount of each stock solution (e.g., 1 mL) and diluted to the appropriate final concentrations with the addition of 10 mL of an aqueous mixture of 1.5% (v/v) crop oil concentrate so that the final spray solutions contain 1.25% (v/v) crop oil concentrate. When technical materials are used, the concentrated stock solutions can be added to the spray solutions so that the final acetone and DMSO concentrations of the application solutions are 16.2% and 0.5%, respectively.
as §6

BRAPP = assay: as above; assay type: in vivo, Brachiaria platyphylla (Griseb.) Nash; conditions: 4.38 gae/ha
Text: as §1, with “stage. […]” for “stage.”
as §4
For treatments comprised of formulated compounds, measured amounts of compounds were placed individually in 25 mL glass vials and diluted in a volume of 1.25% (v/v) Agri-Dex® crop oil concentrated to obtain 12× stock solutions. […]
as §6

ECHCG = assay: In-water applied weed control, transplanted paddy rice (greenhouse); assay type: in vivo, Echinochloa crusgalli (L.) Beauv.
Experimental: (§7) Weed seeds or nutlets of the desired test plant species were planted in puddled soil (mud) prepared by mixing a shredded, non-sterilized mineral soil (50.5 percent silt, 25.5 percent clay, and 24 percent sand, with a pH of about 7.6 and an organic matter content of about 2.9 percent) and water at a 1:1 volumetric ratio. The prepared mud was dispensed in 365 mL aliquots into 16-ounce (oz.) non-perforated plastic pots with a surface area of 86.59 square centimeters (cm^2) leaving a headspace of 3 centimeters (cm) in each pot. Mud was allowed to dry overnight prior to planting or transplanting. Rice seeds were planted in Sun Gro MetroMix® 306 planting mixture, which typically has a pH of 6.0 to 6.8 and an organic matter content of about 30 percent, in plastic plug trays. Seedlings at the second or third leaf stage of growth were transplanted into 860 mL of mud contained in 32-oz. non-perforated plastic pots with a surface area of 86.59 cm^2 4 days prior to herbicide application. The paddy was created by filling the headspace of the pots with 2.5 to 3 cm of water. When required to ensure good germination and healthy plants, a fungicide treatment and/or other chemical or physical treatment was applied. The plants were grown for 4-22 days in a greenhouse with an approximate 14 hr photoperiod which was maintained at about 29′C during the day and 26° C. during the night. Nutrients were added as Osmocote® (19:6:12, N:P:K+minor nutrients) at 2 g per 16-oz. pot and 4 g per 32-oz. pot. Water was added on a regular basis to maintain the paddy flood, and supplemental lighting was provided with overhead metal halide 1000-Watt lamps as necessary. The plants were employed for testing when they reached the first through fourth true leaf stage.
(§8) Treatments consisted of the acid or esters of 4-amino-3-chloro-5-fluoro-6-(4-chloro-2-fluoro-3-methoxy-phenyl)pyridine-2-carboxylic acid (compound A) each formulated as an SC and various herbicidal components alone and in combination. Forms of compound A were applied on an acid equivalent basis.
(§9) Other herbicidal components were applied on an active ingredient basis and included the dimethoxy-pyrimidine acid acetolactate synthase (ALS)-inhibiting herbicides bispyribac-sodium formulated as Regiment® 80 WP, pyriminobac-methyl formulated as Hie Clean®, and pyriftalid (technical grade material).
(§10) Treatment requirements for each compound or herbicidal component were calculated based upon the rates being tested, the concentration of active ingredient or acid equivalent in the formulation, an application volume of 2 mL per component per pot, and an application area of 86.59 cm^2 per pot.
(§11) For formulated compounds, a measured amount was placed in an individual 100 or 200 mL glass vial and was dissolved in a volume of 1.25% (v/v) Agri-Dex® crop oil concentrate to obtain application solutions.
(§12) For technical grade compounds, a weighed amount was placed in an individual 100 to 200 mL glass vial and was dissolved in a volume of acetone to obtain concentrated stock solutions. […] The concentrated stock solutions obtained were diluted with an equivalent volume of an aqueous mixture containing 2.5% (v/v) crop oil concentrate so that the final application solutions contained 1.25% (v/v) crop oil concentrate.
(§13) Applications were made by injecting with a pipetter appropriate amounts of the application solutions, individually and sequentially, into the aqueous layer of the paddy.
(§14) Control plants were treated in the same manner with the solvent blank. Applications were made so that all treated plant material received the same concentrations of acetone and crop oil concentrate.
(§15) The treated plants and control plants were placed in a greenhouse as described above and water was added as needed to maintain a paddy flood. […]

ECHOR = assay: as above; assay type: in vivo, Echinochloa oryzoides (Ard.) Fritsch; conditions: 42.2 gae/ha
Experimental: as §7, §8, §9, §10, §11, §12, §13
(§16) Control plants were treated in the same manner with the solvent blank. […]

LEFCH = assay: as above; assay type: in vivo, Leptochloa chinensis (L.) Nees
Experimental: as §7, §8, §9, §10, §11, §12, §13, §16

SCPMA = assay: as above; assay type: in vivo, Bolboschoenus maritimus (L.) Palla
Experimental: as §7, §8, §9, §10, §11, §12, §13, §14, §15

CYPRO = assay: as above; assay type: in vivo, Cyperus rotundus L.
Experimental: as §7, §8, §9, §10, §11, §12, §13, §14, §15

ECHCO = assay: as above; assay type: in vivo, Echinochloa colona (L.) Link
Experimental: as §7, with “Water was added on a regular basis to maintain the paddy flood, and supplemental lighting was provided with overhead metal halide 1000-Watt lamps as necessary. The plants were employed for testing when they reached the first through fourth true leaf stage.” left out
as §10
For formulated compounds, a measured amount was placed in an individual 100 or 200 mL glass vial and was dissolved in a volume of 1.25% (v/v) Agri-Dex® crop oil concentrate to obtain application solutions. […]

FIMMI = assay: as above; assay type: in vivo, Fimbristylis miliacea (L.) Vahl
Experimental: as §7, §8, §9, §10, §11, §12, §13, §14, §15

COc1c(Cl)ccc(-c2nc(C(=O)O)c(Cl)c(N)c2F)c1F [Compound A Acid, 4-amino-3-chloro-6-(4-chloro-2-fluoro-3-methoxyphenyl)-5-fluoropyridine-2-carboxylic acid]
Visual Weed Control (%)-24 DAA DIGSA Obs (DIGSA; 4.38 gae/ha): 20% | Visual Weed Control (%)-24 DAA DIGSA Obs (DIGSA; 8.75 gae/ha): 25% | Visual Weed Control (%)-24 DAA DIGSA Obs (DIGSA; 17.5 gae/ha): 25% | Visual Weed Control (%)-24 DAA IPOHE Obs (IPOHE; 4.38 gae/ha): 10% | Visual Weed Control (%)-24 DAA IPOHE Obs (IPOHE; 8.75 gae/ha): 10% | Visual Weed Control (%)-24 DAA IPOHE Obs (IPOHE; 17.5 gae/ha): 30% | Visual Weed Control (%)-24 DAA IPOHE Obs (IPOHE; 17.5 gae/ha, second part of Table 3): 25% | Visual Weed Control (%)-24 DAA IPOHE Obs (IPOHE; 35 gae/ha, second part of Table 3): 48% | Visual Weed Control (%)-22 DAA BRAPP Obs (BRAPP): 45% | Visual Weed Control (%) - 20 DAA ECHCG Obs (ECHCG; 8.75 gae/ha): 0% | Visual Weed Control (%) - 20 DAA ECHCG Obs (ECHCG; 17.5 gae/ha): 35% | Visual Weed Control (%) - 20 DAA ECHCG Obs (ECHCG; 35 gae/ha): 55% | Visual Weed Control (%) - 20 DAA ECHCG Obs (ECHCG; 42.2 gae/ha): 18% | Visual Weed Control (%)-20 DAA ECHOR Obs (ECHOR): 18% | Visual Weed Control (%)-21 DAA LEFCH Obs (LEFCH; 8.75 gae/ha): 0% | Visual Weed Control (%)-21 DAA LEFCH Obs (LEFCH; 17.5 gae/ha): 0% | Visual Weed Control (%)-20 DAA LEFCH Obs (LEFCH; 42.2 gae/ha): 15% | Visual Weed Control (%)-21 DAA SCPMA Obs (SCPMA; 8.75 gae/ha): 0% | Visual Weed Control (%)-21 DAA SCPMA Obs (SCPMA; 17.5 gae/ha): 0% | Visual Weed Control (%)-20 DAA SCPMA Obs (SCPMA; 35 gae/ha): 0% | Visual Weed Control (%)-21 DAA SCPMA Obs (SCPMA; 35 gae/ha): 0% | Visual Weed Control (%)-20 DAA SCPMA Obs (SCPMA; 42.2 gae/ha): 0% | Visual Weed Control (%)-20 DAA SCPMA Obs (SCPMA; 70 gae/ha): 0% | Visual Weed Control (%)-21 DAA CYPRO Obs (CYPRO; 8.75 gae/ha): 30% | Visual Weed Control (%)-21 DAA CYPRO Obs (CYPRO; 17.5 gae/ha): 40% | Visual Weed Control (%)-21 DAA CYPRO Obs (CYPRO; 35 gae/ha): 70% | Visual Weed Control (%)-21 DAA ECHCO Obs (ECHCO; 8.75 gae/ha): 0% | Visual Weed Control (%)-21 DAA ECHCO Obs (ECHCO; 17.5 gae/ha): 20% | Visual Weed Control (%)-21 DAA FIMMI Obs (FIMMI; 8.75 gae/ha): 50% | Visual Weed Control (%)-21 DAA FIMMI Obs (FIMMI; 17.5 gae/ha): 85% | Visual Weed Control (%)-21 DAA FIMMI Obs (FIMMI; 35 gae/ha): 85%
